pIC50: −log10 of the molar value. Like-named read-outs stand apart in the source and are kept apart here.
How the values were obtained:
[1] = biological target: T1, DYRK1A (Rattus norvegicus, UniProt Q63470); assay: DYRK1A ELISA kinase assay; assay type: biochemical; details: for times less potent against DYRK1A compared to the di-hydroxy derivatives: A-ring hydroxyl removal, vs GCG
[2] = Stability in biological media; assay type: in vitro ADME; details: biological media (plasma and hepatocytes media)
[3] = biological target: T1, DYRK1A; assay: DYRK1A ELISA assay with varying concentrations of ATP; assay type: biochemical; details: [ATP] up to 0.8 mM
[4] = system: spinal cord inflammation, demyelination, and axonal neurodegeneration; assay: Histopathological analysis of spinal cord sections of EAE mice; assay type: in vivo; details: intranasal vs oral, 15 mg/kg BID
[5] = system: MOG35–55-induced murine model of chronic progressive Experimental Autoimmune Encephalomyelitis (EAE); assay: EAE therapeutic model, disease scores; assay type: in vivo
[6] = Exposure after intranasal compared to oral route; assay type: in vivo; details: brain and peripheral blood; data not shown
[7] = cited from earlier work
[8] = mice; cited from earlier work

O=C(O[C@H]1Cc2ccccc2O[C@@H]1c1cc(O)c(O)c(O)c1)c1cc(O)c(O)c(O)c1 (racemic) [1a]
times less potent against DYRK1A compared to the di-hydroxy derivatives [1]: about 4 times | pIC50 ([1]; read-out: DYRK1A IC50, ELISA assay): 6.37

O=C(O[C@@H]1Cc2c(O)cc(O)cc2O[C@H]1c1ccc(O)c(O)c1)c1cc(O)c(O)c(O)c1F (racemic) [1r]
fold more potent than catechin gallate (CG) [1]: about 3 fold | stability in biological media [2]: improved stability in biological media

O=C(OC1Cc2c(O)cccc2OC1c1cc(O)c(O)c(O)c1)c1cc(O)c(O)c(O)c1 (centres unmarked) [1b]
times less potent against DYRK1A compared to the di-hydroxy derivatives [1]: ~2 times

O=C(OC1Cc2ccccc2CC1c1cc(O)c(O)c(O)c1)c1cc(O)c(O)c(O)c1 (centres unmarked) [1c]
stability in biological media [2]: does not improve stability in biological media

O=C(O[C@@H]1Cc2c(O)cc(O)cc2O[C@H]1c1cc(O)c(O)c(O)c1)c1cc(O)c(O)c(O)c1F [1f]
effect of [ATP] on inhibitory potency [3]: only marginally affected | spinal cord lesion severity, intranasal versus oral administration [4]: more effective at reducing lesion severity than oral administration | fold improvement in activity against DYRK1A compared to GCG [1]: about 3 fold | EAE disease scores ([5]; intranasal, 15 mg/kg twice daily): reversal of the disease scores similar to that observed with FTY720 | EAE disease scores ([5]; oral (PO), 15 mg/kg BID): no significant amelioratory effect until the last two days of the study

O=C(O[C@@H]1Cc2c(O)cc(O)cc2O[C@H]1c1cc(O)c(O)c(O)c1F)c1cc(O)c(O)c(O)c1 [1n]
stability in biological media [2]: did not translate into a stability improvement in biological media

O=C(O[C@@H]1Cc2c(O)cc(O)cc2O[C@H]1c1cc(O)c(O)c(O)c1)c1cc(O)c(O)c(O)c1 [(−)GCG, reference compound]
effect of [ATP] on inhibitory potency [3]: only marginally affected

O=C(O[C@@H]1Cc2c(O)cc(O)cc2O[C@H]1c1ccc(O)c(O)c1)c1cc(O)c(O)c(O)c1 [CG, catechin gallate]
exposure increase with intranasal compared to the oral route [6]: 50 fold

Oc1cc(O)c2c(c1)O[C@H](c1cc(O)c(O)c(O)c1)[C@H](O)C2 [EGC, EpiGalloCatechin, reference compound]
pIC50 [1]: < 4.00

O=C(O[C@@H]1Cc2c(O)cc(O)cc2O[C@@H]1c1cc(O)c(O)c(O)c1)c1cc(O)c(O)c(O)c1 [EGCG, Epigallocatechin gallate]
oral bioavailability (F) ([7]; rats): up to 5% | EAE disease scores ([5]; oral (PO), 15 mg/kg BID): did not see any significant activity | oral bioavailability (F) [8]: up to 12%

COc1cc(C(=O)O[C@@H]2Cc3c(O)cc(O)cc3O[C@@H]2c2cc(O)c(O)c(O)c2)cc(O)c1O [EGCG-3”OMe]
fold improved oral bioavailability than EGCG [7]: about 6 fold

CCCCCCCCc1ccc(CCC(N)(CO)CO)cc1 [FTY720, Fingolimod, reference compound]
EAE disease scores ([5]; 1 mg/kg QD): reversal of the disease scores

From article PMC9067539 (Bioorganic & medicinal chemistry letters, 2022)
